Results taken from ChEMBL document CHEMBL1137933, “Pseudodeflectusin, a novel isochroman derivative from Aspergillus pseudodeflectus a parasite of the sea weed, Sargassum fusiform, as a selective human cancer cytotoxin” (Bioorg Med Chem Lett, 2004).

Assays:
Gamma-secretase = assay: Inhibition of human gamma-secretase activity; type: protein-complex assay
Mus musculus [1] = assay: Compound was tested for reduction in plasma level of Tg2576 mice 3h after oral administration at 200 umol/kg; type: functional
Mus musculus [2] = assay: Compound was tested for reduction in Abeta-protein levels in brain of Tg2576 mice 3h after oral administration at 200 umol/kg; type: functional
Mus musculus [3] = assay: Compound was tested for reduction in brain Abeta-protein level of Tg2576 mice 3h after oral administration at 200 umol/kg; type: functional
Mus musculus [4] = assay: Compound was tested for reduction in Abeta-protein levels in the CNS of Tg2576 beta-APP-swedish transgenic mice after oral administration; type: functional, Central nervous system
Mus musculus [5] = assay: Compound was tested for reduction in Abeta-protein levels in plasma of Tg2576 beta-APP-swedish transgenic mice at a single dose of 200 umol/kg; type: functional
Mus musculus [6] = assay: Compound was tested for reduction in Abeta-protein levels in brain after 3 hr in Tg2576 beta-APP-swedish transgenic mice at a single dose of 200 umol/kg; type: functional

SMILES	IC50 (Gamma-secretase) [nM]	also measured
CC(C)N1C(=O)c2ccccc2C(NC(=O)[C@H](C)NC(=O)Cc2cccc(F)c2)C(=O)N1C (stereo not given in full)	57	
C[C@H](NC(=O)Cc1cc(F)cc(F)c1)C(=O)NC1N=C(c2ccccc2)c2ccccc2N(C)C1=O (stereo not given in full)	210	
C[C@H](NC(=O)Cc1cc(F)cc(F)c1)C(=O)NC1C(=O)N(C)N(C)C(=O)c2ccccc21 (stereo not given in full)	5	Activity (Mus musculus [1]): 2987 nM; Reduction (Mus musculus [2]): 43%; Activity (Mus musculus [3]): 77 nM
COc1cc(CC(=O)N[C@@H](C)C(=O)NC2C(=O)N(C)N(C(C)C)C(=O)c3ccccc32)cc(OC)c1 (stereo not given in full)	> 2500	
CC(C)N1C(=O)c2ccccc2C(NC(=O)[C@H](C)NC(=O)Cc2cc(F)cc(F)c2)C(=O)N1C (stereo not given in full)	47	
CC(C)C[C@H](NC(=O)Cc1cc(F)cc(F)c1)C(=O)NC1C(=O)N(C)N(C(C)C)C(=O)c2ccccc21 (stereo not given in full)	37	
CC(C)N1C(=O)c2ccccc2C(NC(=O)[C@H](C)NC(=O)Cc2ccccc2)C(=O)N1C (stereo not given in full)	140	
CC(C)C[C@H](NC(=O)Cc1cc(F)cc(F)c1)C(=O)NC1C(=O)N(C)C(c2ccccc2)=NC1(C)C (stereo not given in full)	1500	
CC(C)N1C(=O)c2ccccc2C(NC(=O)[C@H](C)NC(=O)Cc2ccco2)C(=O)N1C (stereo not given in full)	86	
CC(C)[C@H](NC(=O)Cc1cc(F)cc(F)c1)C(=O)NC1C(=O)N(C)N(C(C)C)C(=O)c2ccccc21 (stereo not given in full)	190	
CC(C)N1C(=O)c2ccccc2C(NC(=O)[C@H](C)NC(=O)Cc2ccncc2)C(=O)N1C (stereo not given in full)	> 2500	
CC(C)N1C(=O)c2ccccc2C(NC(=O)[C@H](C)NC(=O)Cc2cccc3ccccc23)C(=O)N1C (stereo not given in full)	> 2500	
CC(C)C[C@H](NC(=O)[C@@H](O)c1ccccc1)C(=O)N[C@H]1c2ccccc2C[C@H]1O	71	
CC(C)N1C(=O)c2ccccc2C(NC(=O)[C@H](C)NC(=O)Cc2cccnc2)C(=O)N1C (stereo not given in full)	> 2500	
CC(C)N1C(=O)c2ccccc2C(NC(=O)[C@H](C)NC(=O)Cc2ccoc2)C(=O)N1C (stereo not given in full)	38	
CC(C)N1C(=O)c2ccccc2C(NC(=O)[C@H](C)NC(=O)CC2CCCCC2)C(=O)N1C (stereo not given in full)	150	
CC(C)C[C@H](NC(=O)Cc1cc(F)cc(F)c1)C(=O)Nc1cnc(-c2ccccc2)n(C)c1=O	720	
CC(C)N1C(=O)c2ccccc2C(NC(=O)[C@H](C)NC(=O)Cc2ccsc2)C(=O)N1C (stereo not given in full)	14	
CC(C)C[C@H](NC(=O)Cc1ccsc1)C(=O)NC1C(=O)N(C)N(C(C)C)C(=O)c2ccccc21 (stereo not given in full)	4	
CCCCN(C)C(=O)[C@H](CC1CCCCC1)NC(=O)[C@H](CC(C)C)NC(=O)Cc1cc(F)cc(F)c1	6	
CC(C)N1C(=O)c2ccccc2C(NC(=O)[C@H](C)NC(=O)Cc2cc(C(F)(F)F)cc(C(F)(F)F)c2)C(=O)N1C (stereo not given in full)	> 2500	
C[C@H](NC(=O)Cc1cc(F)cc(F)c1)C(=O)NC1C(=O)N(C)c2ccccc2-c2ccccc21 (stereo not given in full)	76	
CC(C)N1C(=O)c2ccccc2C(NC(=O)[C@H](C)NC(=O)[C@@H](O)c2cc(F)cc(F)c2)C(=O)N1C (stereo not given in full)	5	
CCCCN(C)C(=O)[C@H](CC1CCCCC1)NC(=O)[C@H](CC(C)C)NC(=O)[C@@H](O)c1ccccc1	1	Reduction (Mus musculus [4]): 15%; Activity (Mus musculus [5]): 1833 nM; Activity (Mus musculus [6]): 65 nM
